According to the supplement of paper PMC10307832:

Legend:
Experiment in all cases: relative viability (nuclei count vs DMSO), 5 days (fraction); higher = more cells survive
Crenolanib + Linsitinib = compound: CC1(COc2ccc3c(c2)ncn3-c2ccc3cccc(N4CCC(N)CC4)c3n2)COC1 [Crenolanib] + C[C@]1(O)C[C@@H](c2nc(-c3ccc4ccc(-c5ccccc5)nc4c3)c3c(N)nccn32)C1 [Linsitinib] (partner 1 µM)
Method in brief: (§1)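 Lung cancer cell lines were pin-tool dosed in 1536-well plates on the day after seeding, with either a lone drug or a fixed anchor-drug dose plus five library-drug doses (not always all listed) in √10 steps. Nuclei were counted on 4× images after 5 days. Relative viability is the ratio of treated-well to vehicle-well nuclei counts, with each value a median of duplicate plates.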

Crenolanib + Dasatinib = compound: CC1(COc2ccc3c(c2)ncn3-c2ccc3cccc(N4CCC(N)CC4)c3n2)COC1 [Crenolanib] + Cc1nc(Nc2ncc(C(=O)Nc3c(C)cccc3Cl)s2)cc(N2CCN(CCO)CC2)n1 [Dasatinib] (partner 0.075 µM)
Method in brief: as §1

Crenolanib + Pemetrexed = compound: CC1(COc2ccc3c(c2)ncn3-c2ccc3cccc(N4CCC(N)CC4)c3n2)COC1 [Crenolanib] + Nc1nc2[nH]cc(CCc3ccc(C(=O)N[C@@H](CCC(=O)O)C(=O)O)cc3)c2c(=O)[nH]1 [Pemetrexed] (partner 0.2 µM)
Method in brief: as §1

Tivantinib + Lapatinib = compound: O=C1NC(=O)[C@@H](c2cn3c4c(cccc24)CCC3)[C@@H]1c1c[nH]c2ccccc12 [Tivantinib] + CS(=O)(=O)CCNCc1ccc(-c2ccc3ncnc(Nc4ccc(OCc5cccc(F)c5)c(Cl)c4)c3c2)o1 [Lapatinib] (partner 2 µM)
Method in brief: as §1

Cell Line	relative viability (Crenolanib + Linsitinib; first compound 0.01 µM)	relative viability (Crenolanib + Linsitinib; first compound 0.03162 µM)	relative viability (Crenolanib + Linsitinib; first compound 0.1 µM)	relative viability (Crenolanib + Linsitinib; first compound 0.3162 µM)	relative viability (Crenolanib + Linsitinib; first compound 1 µM)	relative viability (Crenolanib + Dasatinib; first compound 0.01 µM)	relative viability (Crenolanib + Dasatinib; first compound 0.03162 µM)	relative viability (Crenolanib + Dasatinib; first compound 0.1 µM)	relative viability (Crenolanib + Dasatinib; first compound 0.3162 µM)	relative viability (Crenolanib + Dasatinib; first compound 1 µM)	relative viability (Crenolanib + Pemetrexed; first compound 0.01 µM)	relative viability (Crenolanib + Pemetrexed; first compound 0.03162 µM)	relative viability (Crenolanib + Pemetrexed; first compound 0.1 µM)	relative viability (Crenolanib + Pemetrexed; first compound 0.3162 µM)	relative viability (Crenolanib + Pemetrexed; first compound 1 µM)	relative viability (Tivantinib + Lapatinib; first compound 0.01 µM)	relative viability (Tivantinib + Lapatinib; first compound 0.03162 µM)	relative viability (Tivantinib + Lapatinib; first compound 0.1 µM)	relative viability (Tivantinib + Lapatinib; first compound 0.3162 µM)
SK-LU-1	1.09	0.649	0.869	1.16	0.809	0.198	0.182	0.159	0.194	0.172	0.943	1.03	0.892	1.11	0.966	1.06	0.856	0.835	0.855
A-427	1.1	1.06	1.08	1.15	1.15	0.693	0.723	0.699	0.688	0.64	1.01		0.99	0.989	0.834	1	1.12	0.989	1.12
NCI-H460	0.85	0.817	0.745	1.02	0.816	0.506	0.461	0.531	0.565	0.522	0.063	0.067	0.075	0.0642	0.0669	0.905	0.922	0.889	0.99
NCI-H1734	0.925	0.934	0.858	1.02	0.895	0.502	0.427	0.468	0.465	0.453	0.441	0.423	0.423	0.395	0.38	1.01	0.938	1.05	1.01
NCI-H1915	1.13	1.13	1.07	1.09	1.06	0.306	0.271	0.304	0.294	0.223	0.536	0.481	0.511	0.528	0.531	0.95	0.985	1	0.996
Calu-6	1.01	0.813	0.873	1.03	0.936											1.08	1.02	1.02	0.965
SW 1573	0.873	0.841	0.704	0.96	0.81	0.539	0.48	0.591	0.558	0.553	0.784	0.801	0.719	0.942	0.832	1.16	0.97	0.928	1.07
RERF-LC-KJ	0.851	0.937	0.905	0.919	0.944	0.81	0.961	0.933	0.956	0.733	0.474	0.516	0.457	0.479	0.447	0.911	0.9	0.872	0.759
EMC-BAC-2	0.826	0.874	0.805	0.821	0.808	0.369	0.312	0.315	0.313	0.307	0.437		0.456	0.449	0.436	1	0.852	0.867	0.881
